{
  "source": "patent EP0596449A2",
  "about": "“Serotonin receptor antagonists for treating myocardial ischemia” (E.R. SQUIBB & SONS, INC., priority 1992, dated 1994)",
  "key": {"alpha, Adrenoceptors": {"test_system": "alpha, Adrenoceptors", "assay": "Methoxamine-induced contraction in rat aortic rings (alpha1 blocking potency)", "conditions": "45 minute incubation; Figure 5B", "experimental": "In order to determine the alpha1 blocking potency of cinanserin, ketanserin and LY 53857, their effect on methoxamine induced aortic constriction was determined. Male Sprague-Dawley rats were sacrificed using C02. Aortic rings (3 mm in width) were cut, denuded of endothelium by gently rolling the rings on moistened filter paper, and mounted on stainless steel hooks in 20 mL muscle chambers containing oxygenated physiological salt solution (PSS) of the following composition (in mM): 118.4 NaCI, 4.7 KCI, 1.2 MgS04, 1.2 KH2P04, 1.9 CaC12, 25.0 NaHC03, 10.1 D-glucose, and 0.01 mM Na2EDTA maintained at 37 °C. The hooks were connected to Grass FT03C transducers for recording of isometric force development. The rings were stretched to 2 g preload during the equilibration period. During equilibration the rings were periodically stimulated with 24 mM KCI to determine contractility. The effectiveness of endothelial removal was confirmed by the absence of relaxation by 1 µM acetylcholine of a contraction in response to 0.01 µM phenylephrine.\nVarious concentrations of the test compounds were then added to individual baths and allowed a 45 minute incubation before cumulative concentration response curves for methoxamine (1 nM-30 /1.M) were obtained. Solvent controls were run in parallel. […]"}, "[1]": {"test_system": "globally ischemic, isolated rat hearts", "assay": "Effect of 5HT, alone or with 5HT2 antagonist, on time to contracture and pre-ischemic function in isolated rat hearts", "conditions": "for Coronary Flow / HR / LVDP: 30 μM 5HT + 3 μM Ketanserin, pre-ischemic; for effect on the pro-ischemic effect of 5HT (time to contracture): 30 µM 5HT plus antagonist, both given 10 minutes before ischemia, Figure 3", "experimental": "To determine the effect of serotonin receptor agonists and antagonists, male Sprague-Dawley rats (450-550 g) were prepared as described below. The rats were anesthetized using 100 mg/kg sodium pentobarbital (i.p.). They were intubated and then treated with i.v. heparin (1000 U/kg). While being mechanically ventilated, their hearts were perfused in situ via retrograde cannulation of the aorta. […] A water-filled latex balloon attached to a metal cannula was then inserted into the left ventricle and connected to a Statham pressure transducer for measurement of left ventricular pressure. […] Pre-ischemia or pre-drug function, heart rate and coronary flow (extracorporeal electromagnetic flow probe) were then measured. Left ventricular developed pressure (LVDP) was calculated from the difference between left ventricular peak systolic pressure and EDP. Cardiac temperature was maintained throughout the experiment by submerging the hearts in 37 ° C buffer which was allowed to accumulate in a stoppered, heated chamber. In another series of hearts, the effect of 5HT on the severity of ischemia was determined. […] Vehicle (0.1% DMSO) given 10 minutes before ischemia (n = 5). The hearts were subjected to global ischemia as described above and time to contracture determined. Reperfusion function and LDH release were not determined in this group."}},
  "note": "Marks after values point to notes of the source that are not given here.",
  "data": [
    {"smiles": "O=C(c1ccc(F)cc1)C1CCN(CCn2c(=O)[nH]c3ccccc3c2=O)CC1", "note": "[Ketanserin, ketanserin]", "values": [
      {"measurement": "concentration from which the shift of the methoxamine-tension curve was significant", "setting": "alpha, Adrenoceptors", "result": 0.3, "unit": "µM"},
      {"measurement": "Coronary Flow", "setting": "[1]; Post-Drug", "result": "18 ± 1", "unit": "mL/min/g"},
      {"measurement": "HR", "setting": "[1]; Post-Drug", "result": "335±17^a beats/min"},
      {"measurement": "LVDP", "setting": "[1]; Post-Drug", "result": "130±2", "unit": "mmHg"},
      {"measurement": "Coronary Flow", "setting": "[1]; Pre-Drug", "result": "18 ± 2", "unit": "mL/min/g"},
      {"measurement": "HR", "setting": "[1]; Pre-Drug", "result": "270±16", "unit": "beats/min"},
      {"measurement": "LVDP", "setting": "[1]; Pre-Drug", "result": "141±4", "unit": "mmHg"},
      {"measurement": "effect on the pro-ischemic effect of 5HT (time to contracture)", "setting": "[1]", "result": "abolished the pro-ischemic effect of serotonin"},
      {"measurement": "effect on the pro-ischemic effect of 5HT (time to contracture)", "setting": "[1]; listed as ketanserin", "result": "completely abolished this pro-ischemic effect"}
    ]}
  ]
}
